Columns and labels:
MDA-MB-231 [1] = experiment: Induction of cell cycle arrest in human MDA-MB-231 cells assessed as accumulation of cells at G0/G1 phase at 10 uM incubated for 48 hrs by PI staining based flow cytometry (reference value: 55.36 to 55.82%); assay type: functional
MDA-MB-231 [2] = experiment: Induction of apoptosis in human MDA-MB-231 cells assessed as late apoptotic cells at […] uM incubated for 48 hrs by AnnexinV-FITC/PI staining based flow cytometry (reference value: 3.77 to 3.84%); assay type: functional; details: 1.25 µM
MDA-MB-231 [3] = experiment: Induction of cell cycle arrest in human MDA-MB-231 cells assessed as accumulation of cells at G2/M phase at 25 uM incubated for 48 hrs by PI staining based flow cytometry (reference value: 29.42 to 32.08%); assay type: functional
MDA-MB-231 [4] = experiment: Induction of apoptosis in human MDA-MB-231 cells assessed as necrotic cells at […] uM incubated for 48 hrs by AnnexinV-FITC/PI staining based flow cytometry (reference value: 1.79 to 2.53%); assay type: functional; details: 1.25 µM
MDA-MB-231 [5] = experiment: Induction of cell cycle arrest in human MDA-MB-231 cells assessed as accumulation of cells at G2/M phase at 1 uM incubated for 48 hrs by PI staining based flow cytometry (reference value: 29.42 to 32.08%); assay type: functional
MDA-MB-231 [6] = experiment: Induction of cell cycle arrest in human MDA-MB-231 cells assessed as accumulation of cells at G0/G1 phase at 25 uM incubated for 48 hrs by PI staining based flow cytometry (reference value: 55.36 to 55.82%); assay type: functional
MDA-MB-231 [7] = experiment: Inhibition of colony formation in human MDA-MB-231 cells at 0.5 to 10 uM incubated for 7 days by crystal violet staining based analysis; assay type: functional, cell-based; details: dose 0.5-10 µM, time 7.0 day
MDA-MB-231 [8] = experiment: Induction of cell cycle arrest in human MDA-MB-231 cells assessed as accumulation of cells at S phase at 1 uM incubated for 48 hrs by PI staining based flow cytometry (reference value: 12.56 to 14.76%); assay type: functional
MDA-MB-231 [9] = experiment: Antiproliferative activity against human MDA-MB-231 cells assessed as reduction in cell growth incubated for 72 hrs by MTT assay; details: MDA-MB-231, 72 h
MDA-MB-231 [10] = experiment: Induction of apoptosis in human MDA-MB-231 cells assessed as early apoptotic cells at 10 uM incubated for 48 hrs by AnnexinV-FITC/PI staining based flow cytometry (reference value: 1.6 to 2.41%); assay type: functional
MDA-MB-231 [11] = experiment: Induction of apoptosis in human MDA-MB-231 cells assessed as viable cells at […] uM incubated for 48 hrs by AnnexinV-FITC/PI staining based flow cytometry (reference value: 91.22 to 92.84%); assay type: functional; details: read-out: Activity
MDA-MB-231 [12] = experiment: Induction of apoptosis in human MDA-MB-231 cells assessed as viable cells at 10 uM incubated for 48 hrs by AnnexinV-FITC/PI staining based flow cytometry (reference value: 91.22 to 92.84%); assay type: functional; details: read-out: Activity
MDA-MB-231 [13] = experiment: Induction of cell cycle arrest in human MDA-MB-231 cells assessed as accumulation of cells at S phase at 10 uM incubated for 48 hrs by PI staining based flow cytometry (reference value: 12.56 to 14.76%); assay type: functional
MDA-MB-231 [14] = experiment: Induction of apoptosis in human MDA-MB-231 cells assessed as late apoptotic cells at 10 uM incubated for 48 hrs by AnnexinV-FITC/PI staining based flow cytometry (reference value: 3.77 to 3.84%); assay type: functional
MDA-MB-231 [15] = experiment: Induction of apoptosis in human MDA-MB-231 cells assessed as early apoptotic cells at […] uM incubated for 48 hrs by AnnexinV-FITC/PI staining based flow cytometry (reference value: 1.6 to 2.41%); assay type: functional; details: 1.25 µM
MDA-MB-231 [16] = experiment: Induction of cell cycle arrest in human MDA-MB-231 cells assessed as accumulation of cells at G0/G1 phase at 2.5 uM incubated for 48 hrs by PI staining based flow cytometry (reference value: 55.36 to 55.82%); assay type: functional
MDA-MB-231 [17] = experiment: Induction of apoptosis in human MDA-MB-231 cells assessed as viable cells at 2.5 uM incubated for 48 hrs by AnnexinV-FITC/PI staining based flow cytometry (reference value: 91.22 to 92.84%); assay type: functional; details: read-out: Activity
MDA-MB-231 [18] = experiment: Induction of apoptosis in human MDA-MB-231 cells assessed as necrotic cells at 2.5 uM incubated for 48 hrs by AnnexinV-FITC/PI staining based flow cytometry (reference value: 1.79 to 2.53%); assay type: functional
MDA-MB-468 = experiment: Antiproliferative activity against human MDA-MB-468 cells assessed as reduction in cell growth incubated for 72 hrs by MTT assay; details: MDA-MB-468, 72 h
MDA-MB-231 [19] = experiment: Induction of cell cycle arrest in human MDA-MB-231 cells assessed as accumulation of cells at S phase at 25 uM incubated for 48 hrs by PI staining based flow cytometry (reference value: 12.56 to 14.76%); assay type: functional
MDA-MB-231 [20] = experiment: Induction of apoptosis in human MDA-MB-231 cells assessed as viable cells at 5 uM incubated for 48 hrs by AnnexinV-FITC/PI staining based flow cytometry (reference value: 91.22 to 92.84%); assay type: functional; details: read-out: Activity
MDA-MB-231 [21] = experiment: Induction of apoptosis in human MDA-MB-231 cells assessed as necrotic cells at 10 uM incubated for 48 hrs by AnnexinV-FITC/PI staining based flow cytometry (reference value: 1.79 to 2.53%); assay type: functional
MDA-MB-231 [22] = experiment: Induction of cell cycle arrest in human MDA-MB-231 cells assessed as accumulation of cells at G0/G1 phase at 1 uM incubated for 48 hrs by PI staining based flow cytometry (reference value: 55.36 to 55.82%); assay type: functional
MDA-MB-231 [23] = experiment: Induction of cell cycle arrest in human MDA-MB-231 cells assessed as accumulation of cells at G2/M phase at 2.5 uM incubated for 48 hrs by PI staining based flow cytometry (reference value: 29.42 to 32.08%); assay type: functional
[24] = Cytotoxicity against human MCF-10A cells assessed as reduction in cell viability incubated for 72 hrs by MTT assay; assay type: toxicity, cell-based
MDA-MB-231 [25] = experiment: Induction of apoptosis in human MDA-MB-231 cells assessed as necrotic cells at 5 uM incubated for 48 hrs by AnnexinV-FITC/PI staining based flow cytometry (reference value: 1.79 to 2.53%); assay type: functional
MDA-MB-231 [26] = experiment: Induction of cell cycle arrest in human MDA-MB-231 cells assessed as accumulation of cells at S phase at 2.5 uM incubated for 48 hrs by PI staining based flow cytometry (reference value: 12.56 to 14.76%); assay type: functional
MDA-MB-231 [27] = experiment: Induction of cell cycle arrest in human MDA-MB-231 cells assessed as accumulation of cells at G2/M phase at 10 uM incubated for 48 hrs by PI staining based flow cytometry (reference value: 29.42 to 32.08%); assay type: functional
MDA-MB-231 [28] = experiment: Induction of apoptosis in human MDA-MB-231 cells assessed as early apoptotic cells at 2.5 uM incubated for 48 hrs by AnnexinV-FITC/PI staining based flow cytometry (reference value: 1.6 to 2.41%); assay type: functional
MDA-MB-453 = experiment: Antiproliferative activity against human MDA-MB-453 cells assessed as reduction in cell growth incubated for 72 hrs by MTT assay; details: MDA-MB-453, 72 h
[29] = target: Hepatocyte growth factor receptor (Homo sapiens, UniProt P08581); experiment: Inhibition of c-Met (unknown origin) using Poly(Glu:Tyr)(4:1) and ATP as substrate incubated for 45 mins by Kinase-Glo Max reagent based luminescence analysis
Hepatocyte growth factor receptor, sequence (P08581 whole entry): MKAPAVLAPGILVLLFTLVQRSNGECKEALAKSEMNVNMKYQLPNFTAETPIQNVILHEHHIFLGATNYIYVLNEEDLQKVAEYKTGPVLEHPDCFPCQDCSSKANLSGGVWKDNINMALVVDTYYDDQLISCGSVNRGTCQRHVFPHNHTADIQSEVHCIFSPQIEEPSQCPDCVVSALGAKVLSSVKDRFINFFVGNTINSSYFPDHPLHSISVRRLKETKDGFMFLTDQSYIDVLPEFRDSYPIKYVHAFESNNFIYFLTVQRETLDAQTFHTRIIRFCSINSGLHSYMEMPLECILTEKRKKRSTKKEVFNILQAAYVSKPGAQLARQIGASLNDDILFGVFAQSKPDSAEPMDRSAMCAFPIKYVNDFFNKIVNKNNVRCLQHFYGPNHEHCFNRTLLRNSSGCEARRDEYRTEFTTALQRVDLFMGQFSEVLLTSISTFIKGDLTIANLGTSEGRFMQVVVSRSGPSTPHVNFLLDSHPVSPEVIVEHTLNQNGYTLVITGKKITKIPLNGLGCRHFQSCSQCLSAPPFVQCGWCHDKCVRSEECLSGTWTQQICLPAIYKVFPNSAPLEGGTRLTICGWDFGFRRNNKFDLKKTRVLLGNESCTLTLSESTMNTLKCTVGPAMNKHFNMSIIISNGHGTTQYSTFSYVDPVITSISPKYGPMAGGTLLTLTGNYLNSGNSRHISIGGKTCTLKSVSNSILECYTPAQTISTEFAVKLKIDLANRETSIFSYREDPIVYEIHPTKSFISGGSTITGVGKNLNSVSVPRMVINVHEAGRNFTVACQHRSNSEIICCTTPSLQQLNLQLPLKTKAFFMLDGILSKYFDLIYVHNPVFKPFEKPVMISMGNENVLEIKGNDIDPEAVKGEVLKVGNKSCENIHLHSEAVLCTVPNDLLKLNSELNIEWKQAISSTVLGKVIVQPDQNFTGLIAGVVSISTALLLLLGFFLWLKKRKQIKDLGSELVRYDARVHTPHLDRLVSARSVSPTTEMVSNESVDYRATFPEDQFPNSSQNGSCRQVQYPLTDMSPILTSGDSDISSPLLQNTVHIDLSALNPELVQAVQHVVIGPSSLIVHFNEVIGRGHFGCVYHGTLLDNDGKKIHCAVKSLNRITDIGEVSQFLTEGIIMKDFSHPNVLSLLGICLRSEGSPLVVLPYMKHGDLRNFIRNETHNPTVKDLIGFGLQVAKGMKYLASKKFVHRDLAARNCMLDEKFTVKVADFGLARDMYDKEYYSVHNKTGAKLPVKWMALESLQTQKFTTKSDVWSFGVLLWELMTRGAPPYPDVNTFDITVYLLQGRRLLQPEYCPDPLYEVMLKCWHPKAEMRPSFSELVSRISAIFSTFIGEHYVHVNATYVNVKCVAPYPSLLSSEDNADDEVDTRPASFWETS

MDA-MB-231 [30] = experiment: Induction of apoptosis in human MDA-MB-231 cells assessed as early apoptotic cells at 5 uM incubated for 48 hrs by AnnexinV-FITC/PI staining based flow cytometry (reference value: 1.6 to 2.41%); assay type: functional
MDA-MB-231 [31] = experiment: Induction of apoptosis in human MDA-MB-231 cells assessed as late apoptotic cells at 2.5 uM incubated for 48 hrs by AnnexinV-FITC/PI staining based flow cytometry (reference value: 3.77 to 3.84%); assay type: functional
MDA-MB-231 [32] = experiment: Induction of apoptosis in human MDA-MB-231 cells assessed as late apoptotic cells at 5 uM incubated for 48 hrs by AnnexinV-FITC/PI staining based flow cytometry (reference value: 3.77 to 3.84%); assay type: functional

## CC(c1ccc2ncccc2c1)n1nnc2ncc(N3CCN(Cc4ccc(/C=C/C(=O)Nc5ccc(F)cc5N)cc4)CC3)nc21 (centres undefined)
MDA-MB-231 [1]
  Activity: 72.67%
MDA-MB-231 [2]
  Activity: 5.18%
MDA-MB-231 [3]
  Activity: 13.48%
MDA-MB-231 [4]
  Activity: 4.05%
MDA-MB-231 [5]
  Activity: 21.12%
MDA-MB-231 [6]
  Activity: 74.44%
MDA-MB-231 [7]
  inhibition: Dose-Dependent Effect
MDA-MB-231 [8]
  Activity: 10.25%
MDA-MB-231 [9]
  IC50: 1630 nM
MDA-MB-231 [10]
  Activity: 3.12%
MDA-MB-231 [11]
  viability at 1.25 µM: 88.8%
MDA-MB-231 [12]
  viability at 10 µM: 85.2%
MDA-MB-231 [13]
  Activity: 12.11%
MDA-MB-231 [14]
  Activity: 9.5%
MDA-MB-231 [15]
  Activity: 2%
MDA-MB-231 [16]
  Activity: 71%
MDA-MB-231 [17]
  viability at 2.5 µM: 87.4%
MDA-MB-231 [18]
  Activity: 2.21%
MDA-MB-468
  IC50: 1250 nM
MDA-MB-231 [19]
  Activity: 12.08%
MDA-MB-231 [20]
  viability at 5 µM: 87.1%
MDA-MB-231 [21]
  Activity: 2.15%
MDA-MB-231 [22]
  Activity: 68.63%
MDA-MB-231 [23]
  Activity: 18.03%
[24]
  IC50 at 72 h: > 25000 nM
MDA-MB-231 [25]
  Activity: 1.98%
MDA-MB-231 [26]
  Activity: 9.97%
MDA-MB-231 [27]
  Activity: 15.22%
MDA-MB-231 [28]
  Activity: 3.22%
MDA-MB-453
  IC50: 3880 nM
[29]
  IC50: 54.9 nM
MDA-MB-231 [30]
  Activity: 2.65%
MDA-MB-231 [31]
  Activity: 7.16%
MDA-MB-231 [32]
  Activity: 8.25%
